The values below come from ChEMBL document CHEMBL1136315, “Identification of a novel class of inhibitor of human and Escherichia coli thymidine phosphorylase by in silico screening” (Bioorg Med Chem Lett, 2003).

For experiment [1], the target named is T1, Thymidine phosphorylase (Homo sapiens) (UniProt P19971).
T1 sequence (whole entry): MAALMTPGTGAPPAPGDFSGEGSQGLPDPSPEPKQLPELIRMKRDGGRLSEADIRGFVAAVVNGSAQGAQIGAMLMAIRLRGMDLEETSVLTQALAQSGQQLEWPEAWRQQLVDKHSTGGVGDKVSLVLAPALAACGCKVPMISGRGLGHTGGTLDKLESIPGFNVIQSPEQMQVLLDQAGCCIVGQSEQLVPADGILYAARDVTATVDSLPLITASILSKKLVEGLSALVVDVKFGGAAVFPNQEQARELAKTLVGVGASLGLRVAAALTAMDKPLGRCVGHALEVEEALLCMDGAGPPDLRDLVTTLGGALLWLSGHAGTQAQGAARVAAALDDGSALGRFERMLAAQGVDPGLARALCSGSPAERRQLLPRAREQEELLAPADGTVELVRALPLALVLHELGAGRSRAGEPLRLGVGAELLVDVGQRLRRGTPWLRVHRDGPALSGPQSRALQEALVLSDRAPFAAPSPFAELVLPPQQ
As to the kind of experiment: Inhibitory activity (134 uM) against Escherichia coli thymidine phosphorylase.

The target in experiment [2] is Thymidine phosphorylase (Escherichia coli) (UniProt P07650). The experiment in a line: Inhibitory activity (105 uM) against Escherichia coli thymidine phosphorylase.
Thymidine phosphorylase (Escherichia coli), sequence (P07650 whole entry, looked up): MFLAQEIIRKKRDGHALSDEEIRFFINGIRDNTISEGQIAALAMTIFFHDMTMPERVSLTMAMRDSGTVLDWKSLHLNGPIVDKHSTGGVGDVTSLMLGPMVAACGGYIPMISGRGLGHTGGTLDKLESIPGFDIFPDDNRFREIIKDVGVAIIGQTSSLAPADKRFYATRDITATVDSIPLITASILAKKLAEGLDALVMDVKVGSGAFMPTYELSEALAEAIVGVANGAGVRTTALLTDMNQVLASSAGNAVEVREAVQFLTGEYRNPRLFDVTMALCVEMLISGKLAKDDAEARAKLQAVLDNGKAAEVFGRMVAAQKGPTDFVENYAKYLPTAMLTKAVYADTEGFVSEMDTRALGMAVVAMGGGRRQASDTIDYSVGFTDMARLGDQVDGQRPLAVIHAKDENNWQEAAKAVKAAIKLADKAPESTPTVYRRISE

Turning to `C=CCN/C(S)=N/C=C1C(=O)NC(=O)NC1=O`, in experiment [1], the inhibition came to 60%.
`CCCCC1(/C=N/N=C(/N)S)NC(=O)NC1=O` (configuration not stated): the inhibition in experiment [2] was 23%.
